Consider 39 molecules from ChEMBL document CHEMBL3507680, “University of Dundee, Gates Library screen for HepG2 cell viability”.

The series can be described thus: Human HepG2 cell viability assay in 384 well format. Type of series: toxicity, cell-based. The arrangement: dose 125 nL, time 70.5 hour; concentration not given beside the values. As to conditions: HepG2 cells, read-out: Inhibition.
Take `N#Cc1ccc(S(=O)(=O)Nc2ccccc2C#N)cn1`: the cytotoxicity at 70.5 h is -6%.

With `Cc1ncccc1-c1cc2cccnc2n1CCCNC(=O)C(C)(C)C`, the cytotoxicity at 70.5 h was 2.29%.

`Oc1ncccc1-c1nc(-c2cccc(CN3CCOCC3)c2)no1`: the cytotoxicity at 70.5 h is -15.1%.

Regarding `CCOc1cc2c(cc1CNC(Cc1cccs1)c1nccs1)OCO2` (centres undefined), the cytotoxicity at 70.5 h was 1.33%.

Take `CCN1CCN(c2ccccc2NC(=O)NCc2ccon2)CC1`: the cytotoxicity at 70.5 h is -0.39%.

With `Cn1cc(C(=O)N2CCCN(C3Cc4ccccc4C3)CC2)cn1`, the cytotoxicity at 70.5 h was -13.8%.

As to `COc1cccc(CNC(C)c2ccc(-n3ccnc3)cc2)c1O` (centres undefined), the cytotoxicity at 70.5 h was -5.24%.

Turning to `CC(C)C(C)N(C)Cc1nnc(-c2ccc(Br)s2)o1` (centres undefined), the cytotoxicity at 70.5 h is -3%.

In the case of `CN(C)C1CCCN(C(=O)CCc2csc(N)n2)CC1` (centres undefined), the cytotoxicity at 70.5 h is 1.01%.

For the molecule `CC(C)(C)NC(=O)C1CSCN1S(=O)(=O)c1cccc(F)c1` (centres undefined), the cytotoxicity at 70.5 h is -9.43%.

Consider `CC(C)COCc1cncc2c1CCN(C(=O)c1cscn1)C2`, for which the cytotoxicity at 70.5 h is -2.6%.

Take `O=C(Cc1ccc(O)c(F)c1)N1CCC2(CCNCC2)CC1`: the cytotoxicity at 70.5 h is -1.13%.

For the molecule `Cc1nn(C)c2ncnc(NCc3nncn3C3CCCCC3)c12`, the cytotoxicity at 70.5 h was -6.04%.

Regarding `CC(CNC(=O)Nc1cn[nH]c1)N1CCOCC1` (centres undefined), the cytotoxicity at 70.5 h was -12.1%.

For `Cc1nc(N2CCOCC2)nc(C)c1NC(=O)COc1ccccc1`, the cytotoxicity at 70.5 h was -1.69%.

For `CNC(=O)c1n[nH]c2c1C(c1cccc3c1OC(C)(C)C3)CC(=O)N2` (centres undefined), the cytotoxicity at 70.5 h is -1.8%.

In the case of `COCc1cc(C[C@@H]2CC[C@H](O)[C@@H](CNCC(C)C)O2)no1`, the cytotoxicity at 70.5 h is -0.483%.

`CSCCN(C)C(=O)C1(c2ccc(F)cc2F)CCOCC1`: the cytotoxicity at 70.5 h was -0.975%.

As for `Fc1cc(CN2CCOC3(CCOCC3)C2)ccc1Cl`, the cytotoxicity at 70.5 h is -1.5%.

For the molecule `COc1ccc([C@@H]2CN(Cc3cccnc3N)C[C@H]2NC(C)=O)cc1`, the cytotoxicity at 70.5 h is -8.12%.

On to `c1cnc(NCCCOC2CCOCC2)nc1`, for which the cytotoxicity at 70.5 h is 4.17%.

`Cn1ccc(C(=O)NCc2ccc(CN3CCCCC3)cc2)cc1=O`: the cytotoxicity at 70.5 h was -12%.

`CCc1nnc(Nc2cc(C)nc(C3CN(C(C)=O)CCO3)c2)s1` (centres undefined): the cytotoxicity at 70.5 h was determined as 0.483%.

Regarding `Cc1cc(C)c(CNC(=O)c2ccc3c(c2)CCC3)c(=O)[nH]1`, the cytotoxicity at 70.5 h was 4.13%.

Regarding `CC(C#N)CN(C)Cc1c(Cl)ccc2cccnc12` (centres undefined), the cytotoxicity at 70.5 h was 23%.

Turning to `CCOc1ncccc1NC(=O)NC1CCN(C(C)=O)CC1`, the cytotoxicity at 70.5 h amounted to 1.62%.

Turning to `O=C([C@H]1CCCO1)N1CCCC2(CCN(Cc3ccncc3)C2=O)C1` (some centres undefined), the cytotoxicity at 70.5 h is 22.1%.

As for `COc1ccccc1N1CCC(CNS(=O)(=O)c2cccs2)C1` (centres undefined), the cytotoxicity at 70.5 h was -6.04%.

With `CCCN(CC1COc2ccccc2O1)C(=O)CCn1cncn1` (centres undefined), the cytotoxicity at 70.5 h is -1.87%.

In the case of `COCCN1CCCC(O)(CN2CCN(c3cc(C)ccn3)CC2)C1=O` (centres undefined), the cytotoxicity at 70.5 h is -0.635%.

As to `COc1ccc2[nH]cc(C(=O)N3C[C@@H](O)[C@H](N4CCOCC4)C3)c2c1`, the cytotoxicity at 70.5 h was -9.96%.

For `Cc1ccc(C(=O)N2Cc3c(CN4CCCCC4)nn(C)c3C2)o1`, the cytotoxicity at 70.5 h came out at 6.3%.

Take `Cc1cccc(NC(=O)CNC(=O)c2ccccc2F)c1`: the cytotoxicity at 70.5 h came out at 4.02%.

As for `COc1ccc(CN2CCCCCC2c2cccs2)c(O)c1` (centres undefined), the cytotoxicity at 70.5 h is -7.17%.

For the molecule `CN(C)C(=O)NCc1cc2n(n1)CCCN(CC1CCCNC1)C2` (centres undefined), the cytotoxicity at 70.5 h came out at 29.9%.

Regarding `Cc1ccc(SC2CCCC2)c(C(=O)NCCc2n[nH]c(=O)[nH]2)c1`, the cytotoxicity at 70.5 h worked out at 2.84%.

As to `O=C(NC1CCCC1)N1CCC2(CC1)CC(Oc1cccnc1)CO2` (centres undefined), the cytotoxicity at 70.5 h was 26.9%.

On to `O=S(=O)(c1ccc(Cl)s1)N1CCN(Cc2nc(-c3ccco3)cs2)CC1`, for which the cytotoxicity at 70.5 h is -13.8%.

With `Cc1cnc(CN2CCN(c3ccnc(-c4ccccc4)n3)CC2)cn1`, the cytotoxicity at 70.5 h was -10.6%.
